# Source: ChEMBL document CHEMBL4507319 (2021)
# How the values were obtained:
# [1] = target: T1, NUAK family SNF1-like kinase 2 (Homo sapiens) (UniProt Q9H093); assay: NUAK2(h) Eurofins kinase panel; details: Compound concentration 1.0 uM
# T1 sequence (whole entry): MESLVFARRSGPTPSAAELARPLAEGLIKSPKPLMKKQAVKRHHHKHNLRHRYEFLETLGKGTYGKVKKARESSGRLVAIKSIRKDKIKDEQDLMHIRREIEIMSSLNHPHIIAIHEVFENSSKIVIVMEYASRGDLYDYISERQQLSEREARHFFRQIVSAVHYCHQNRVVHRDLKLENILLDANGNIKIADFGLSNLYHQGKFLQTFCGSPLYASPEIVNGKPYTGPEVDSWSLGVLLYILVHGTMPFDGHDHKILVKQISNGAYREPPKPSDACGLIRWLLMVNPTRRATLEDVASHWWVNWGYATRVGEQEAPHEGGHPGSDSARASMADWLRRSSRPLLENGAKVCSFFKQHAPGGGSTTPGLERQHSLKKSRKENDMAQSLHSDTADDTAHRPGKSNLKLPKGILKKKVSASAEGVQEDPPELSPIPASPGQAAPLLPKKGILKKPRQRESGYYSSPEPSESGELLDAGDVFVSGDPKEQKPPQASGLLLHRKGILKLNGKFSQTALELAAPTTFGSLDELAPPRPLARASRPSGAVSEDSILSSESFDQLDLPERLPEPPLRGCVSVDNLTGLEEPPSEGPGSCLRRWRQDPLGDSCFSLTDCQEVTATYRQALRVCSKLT
# [2] = target: Tyrosine-protein kinase Lck (Homo sapiens) (UniProt P06239); assay: Lck(h) Eurofins kinase panel; details: Compound concentration 1.0 uM
# Chain of Tyrosine-protein kinase Lck (Homo sapiens) (P06239 2-509 limits assumed): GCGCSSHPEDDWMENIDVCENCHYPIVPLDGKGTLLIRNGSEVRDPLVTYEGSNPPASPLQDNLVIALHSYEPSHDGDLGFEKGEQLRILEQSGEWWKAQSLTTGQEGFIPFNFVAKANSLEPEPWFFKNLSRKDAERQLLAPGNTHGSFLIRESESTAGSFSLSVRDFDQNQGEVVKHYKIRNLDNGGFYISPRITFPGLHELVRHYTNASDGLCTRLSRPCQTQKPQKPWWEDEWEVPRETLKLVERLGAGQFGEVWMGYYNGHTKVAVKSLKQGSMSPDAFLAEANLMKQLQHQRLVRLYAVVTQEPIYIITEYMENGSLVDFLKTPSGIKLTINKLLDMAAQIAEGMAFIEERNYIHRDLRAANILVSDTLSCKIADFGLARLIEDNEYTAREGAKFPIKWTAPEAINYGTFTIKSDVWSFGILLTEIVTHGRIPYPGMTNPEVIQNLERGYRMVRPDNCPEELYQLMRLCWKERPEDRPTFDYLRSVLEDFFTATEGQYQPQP
# [3] = target: T2, Serine/threonine-protein kinase 17A (Homo sapiens) (UniProt Q9UEE5); assay: DRAK1(h) Eurofins kinase panel; details: Compound concentration 1.0 uM
# T2 sequence (whole entry): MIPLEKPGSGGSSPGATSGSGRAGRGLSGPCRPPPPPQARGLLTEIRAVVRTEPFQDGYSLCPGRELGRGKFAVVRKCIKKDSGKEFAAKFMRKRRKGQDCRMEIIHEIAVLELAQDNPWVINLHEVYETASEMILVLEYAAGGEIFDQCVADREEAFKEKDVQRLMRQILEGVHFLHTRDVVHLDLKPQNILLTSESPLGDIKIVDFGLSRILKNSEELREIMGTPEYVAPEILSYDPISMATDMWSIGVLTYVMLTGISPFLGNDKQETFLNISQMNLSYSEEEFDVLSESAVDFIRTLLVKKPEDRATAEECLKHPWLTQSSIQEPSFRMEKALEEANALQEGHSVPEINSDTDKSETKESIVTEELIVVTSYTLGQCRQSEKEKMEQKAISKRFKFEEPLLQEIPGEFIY
# [4] = target: Serine/threonine-protein kinase tousled-like 2 (Homo sapiens) (UniProt Q86UE8); assay: TLK2(h) Eurofins kinase panel; details: Compound concentration 1.0 uM
# Chain of Serine/threonine-protein kinase tousled-like 2 (Homo sapiens) (Q86UE8 whole entry, looked up): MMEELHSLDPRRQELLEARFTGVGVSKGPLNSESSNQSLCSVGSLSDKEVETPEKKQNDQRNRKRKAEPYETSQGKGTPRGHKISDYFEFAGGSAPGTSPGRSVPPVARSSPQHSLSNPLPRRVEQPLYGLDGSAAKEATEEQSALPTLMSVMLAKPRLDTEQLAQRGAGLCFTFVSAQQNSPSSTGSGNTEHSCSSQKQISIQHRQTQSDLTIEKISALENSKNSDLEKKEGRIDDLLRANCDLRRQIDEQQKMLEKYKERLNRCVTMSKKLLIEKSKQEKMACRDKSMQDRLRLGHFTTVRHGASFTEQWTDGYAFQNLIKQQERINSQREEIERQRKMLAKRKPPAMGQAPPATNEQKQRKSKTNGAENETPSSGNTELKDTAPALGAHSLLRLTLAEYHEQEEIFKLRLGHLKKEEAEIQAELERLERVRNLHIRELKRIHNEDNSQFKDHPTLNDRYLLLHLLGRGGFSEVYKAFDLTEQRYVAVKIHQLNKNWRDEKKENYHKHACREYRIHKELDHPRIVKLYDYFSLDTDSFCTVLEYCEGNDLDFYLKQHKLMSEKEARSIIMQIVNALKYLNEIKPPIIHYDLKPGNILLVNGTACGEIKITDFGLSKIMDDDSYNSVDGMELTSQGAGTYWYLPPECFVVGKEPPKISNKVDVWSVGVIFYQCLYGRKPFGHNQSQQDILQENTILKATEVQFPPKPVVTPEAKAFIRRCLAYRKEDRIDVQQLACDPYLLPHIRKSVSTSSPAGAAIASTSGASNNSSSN
# U-251 = assay: U251 cell line Proliferation assay; assay type: functional, Homo sapiens; details: time 3 day
# [5] = target: Platelet-derived growth factor receptor alpha (Homo sapiens) (UniProt P16234); assay: PDGFRalpha(h) Eurofins kinase panel; details: Compound concentration 1.0 uM
# Chain of Platelet-derived growth factor receptor alpha (Homo sapiens) (P16234 whole entry): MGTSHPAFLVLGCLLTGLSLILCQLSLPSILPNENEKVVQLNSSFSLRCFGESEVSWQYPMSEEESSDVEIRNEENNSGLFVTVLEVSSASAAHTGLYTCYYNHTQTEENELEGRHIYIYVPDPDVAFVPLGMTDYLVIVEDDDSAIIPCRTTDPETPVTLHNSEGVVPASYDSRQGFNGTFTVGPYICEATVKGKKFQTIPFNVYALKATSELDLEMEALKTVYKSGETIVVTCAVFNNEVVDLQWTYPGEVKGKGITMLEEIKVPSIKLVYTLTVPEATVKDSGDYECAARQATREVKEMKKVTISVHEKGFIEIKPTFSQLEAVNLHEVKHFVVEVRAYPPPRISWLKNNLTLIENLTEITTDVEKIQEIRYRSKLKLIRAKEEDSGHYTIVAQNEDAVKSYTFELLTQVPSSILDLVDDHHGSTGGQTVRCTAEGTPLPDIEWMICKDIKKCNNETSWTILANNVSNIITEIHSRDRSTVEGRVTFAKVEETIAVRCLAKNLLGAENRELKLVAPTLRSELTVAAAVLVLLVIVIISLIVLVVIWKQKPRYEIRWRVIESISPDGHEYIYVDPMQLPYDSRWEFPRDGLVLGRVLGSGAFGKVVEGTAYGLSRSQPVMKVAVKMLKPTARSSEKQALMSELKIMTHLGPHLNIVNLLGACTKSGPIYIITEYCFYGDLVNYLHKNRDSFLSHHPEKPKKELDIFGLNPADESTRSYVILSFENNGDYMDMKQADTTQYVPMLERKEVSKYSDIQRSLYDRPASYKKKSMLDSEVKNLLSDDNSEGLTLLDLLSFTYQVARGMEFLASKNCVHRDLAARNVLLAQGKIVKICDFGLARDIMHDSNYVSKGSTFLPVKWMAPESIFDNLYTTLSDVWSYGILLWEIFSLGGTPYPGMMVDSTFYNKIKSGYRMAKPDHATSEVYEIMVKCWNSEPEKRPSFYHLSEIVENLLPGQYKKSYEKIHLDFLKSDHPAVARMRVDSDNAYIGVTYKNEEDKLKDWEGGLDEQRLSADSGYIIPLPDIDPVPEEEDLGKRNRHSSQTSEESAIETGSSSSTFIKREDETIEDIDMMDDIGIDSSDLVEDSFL
# [6] = target: T3, Serine/threonine-protein kinase Sgk3 (Homo sapiens) (UniProt Q96BR1); assay: SGK3(h) Eurofins kinase panel; details: Compound concentration 1.0 uM
# T3 sequence (whole entry): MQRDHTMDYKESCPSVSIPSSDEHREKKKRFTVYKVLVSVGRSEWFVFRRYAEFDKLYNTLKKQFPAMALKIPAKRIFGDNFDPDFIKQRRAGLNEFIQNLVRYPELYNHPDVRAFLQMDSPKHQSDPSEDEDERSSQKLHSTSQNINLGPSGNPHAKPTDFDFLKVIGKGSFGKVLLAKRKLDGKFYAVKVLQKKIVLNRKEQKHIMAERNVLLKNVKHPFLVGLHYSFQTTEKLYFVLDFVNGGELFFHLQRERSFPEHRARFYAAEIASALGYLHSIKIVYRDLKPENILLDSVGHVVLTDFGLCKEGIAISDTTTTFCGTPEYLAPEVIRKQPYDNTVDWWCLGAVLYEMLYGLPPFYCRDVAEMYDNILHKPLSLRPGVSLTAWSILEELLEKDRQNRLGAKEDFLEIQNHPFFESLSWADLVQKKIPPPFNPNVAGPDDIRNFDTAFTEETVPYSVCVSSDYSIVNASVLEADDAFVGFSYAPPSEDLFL
# [7] = target: Homeodomain-interacting protein kinase 1 (Homo sapiens) (UniProt Q86Z02); assay: HIPK1(h) Eurofins kinase panel; details: Compound concentration 1.0 uM
# Chain of Homeodomain-interacting protein kinase 1 (Homo sapiens) (Q86Z02 whole entry, looked up): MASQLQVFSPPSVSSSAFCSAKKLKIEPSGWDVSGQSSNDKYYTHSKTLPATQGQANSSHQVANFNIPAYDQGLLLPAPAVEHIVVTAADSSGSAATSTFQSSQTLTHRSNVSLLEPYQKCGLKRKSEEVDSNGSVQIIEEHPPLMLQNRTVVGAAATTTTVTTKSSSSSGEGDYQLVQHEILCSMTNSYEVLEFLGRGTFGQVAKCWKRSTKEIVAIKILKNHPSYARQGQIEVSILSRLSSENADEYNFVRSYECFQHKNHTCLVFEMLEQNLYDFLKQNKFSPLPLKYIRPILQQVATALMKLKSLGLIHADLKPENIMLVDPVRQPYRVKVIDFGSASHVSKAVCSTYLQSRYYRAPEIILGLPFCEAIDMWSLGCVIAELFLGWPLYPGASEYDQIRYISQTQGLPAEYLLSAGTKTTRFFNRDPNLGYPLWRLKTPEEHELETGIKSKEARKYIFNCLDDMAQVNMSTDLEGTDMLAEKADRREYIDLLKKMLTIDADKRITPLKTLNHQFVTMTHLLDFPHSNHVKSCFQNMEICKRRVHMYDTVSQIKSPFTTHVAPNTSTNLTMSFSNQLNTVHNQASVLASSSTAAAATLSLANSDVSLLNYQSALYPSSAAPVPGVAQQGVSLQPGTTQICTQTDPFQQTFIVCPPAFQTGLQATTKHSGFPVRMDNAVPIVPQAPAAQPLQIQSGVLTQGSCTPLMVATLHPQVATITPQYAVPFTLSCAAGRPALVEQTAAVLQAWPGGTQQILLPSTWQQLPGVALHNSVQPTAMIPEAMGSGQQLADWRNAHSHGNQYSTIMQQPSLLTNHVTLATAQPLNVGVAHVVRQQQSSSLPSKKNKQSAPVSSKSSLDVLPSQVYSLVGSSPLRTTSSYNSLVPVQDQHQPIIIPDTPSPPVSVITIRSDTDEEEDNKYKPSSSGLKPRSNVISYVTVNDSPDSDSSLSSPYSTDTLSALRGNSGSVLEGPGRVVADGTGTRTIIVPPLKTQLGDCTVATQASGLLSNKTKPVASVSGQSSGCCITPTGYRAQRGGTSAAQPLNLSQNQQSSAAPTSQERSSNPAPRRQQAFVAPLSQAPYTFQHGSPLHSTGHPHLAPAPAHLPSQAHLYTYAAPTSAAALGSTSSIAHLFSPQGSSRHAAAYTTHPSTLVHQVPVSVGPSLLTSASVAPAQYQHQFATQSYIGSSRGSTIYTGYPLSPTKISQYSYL
# A2780 = assay: A2780 cell line Proliferation assay; assay type: functional, Homo sapiens; details: time 3 day
# [8] = target: T4, G protein-coupled receptor kinase 3 (Homo sapiens) (UniProt P35626); assay: GRK3(h) Eurofins kinase panel; details: Compound concentration 1.0 uM
# T4 sequence (whole entry): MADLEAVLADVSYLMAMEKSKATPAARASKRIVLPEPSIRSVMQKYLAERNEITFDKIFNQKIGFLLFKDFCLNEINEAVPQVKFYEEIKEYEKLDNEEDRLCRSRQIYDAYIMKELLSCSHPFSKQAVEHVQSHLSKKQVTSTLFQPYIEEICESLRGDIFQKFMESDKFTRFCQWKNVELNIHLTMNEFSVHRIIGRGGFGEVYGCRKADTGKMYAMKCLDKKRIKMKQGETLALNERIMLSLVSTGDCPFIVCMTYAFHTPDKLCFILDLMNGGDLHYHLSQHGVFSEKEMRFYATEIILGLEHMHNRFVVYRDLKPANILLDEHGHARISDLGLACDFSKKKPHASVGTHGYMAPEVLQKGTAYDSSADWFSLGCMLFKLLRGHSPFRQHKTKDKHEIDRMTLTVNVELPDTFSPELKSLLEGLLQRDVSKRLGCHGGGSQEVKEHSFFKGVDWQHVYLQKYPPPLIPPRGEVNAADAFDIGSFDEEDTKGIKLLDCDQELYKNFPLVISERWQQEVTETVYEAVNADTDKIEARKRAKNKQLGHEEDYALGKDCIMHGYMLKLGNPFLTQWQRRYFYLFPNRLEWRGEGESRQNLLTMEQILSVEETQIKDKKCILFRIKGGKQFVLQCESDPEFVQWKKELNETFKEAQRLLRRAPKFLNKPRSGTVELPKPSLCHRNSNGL
structure (smiles),measurement,setting,value
CCc1ccccc1C(=O)Nc1n[nH]c2c(C)c(F)c(C3C(C#N)=C(C)N(C)C(C)=C3C#N)cc12 [BAY-3827],% residual kinase activity,[1],45%
same,% residual kinase activity,[2],93%
same,% residual kinase activity,[3],119%
same,% residual kinase activity,[4],96%
same,Cell Proliferation IC50,U-251,20.9 µM
same,% residual kinase activity,[5],102%
same,% residual kinase activity,[6],95%
same,% residual kinase activity,[7],100%
same,Cell Proliferation IC50,A2780,>33 µM
same,% residual kinase activity,[8],106%
